From PubChem BioAssay AID1963832 (Molecular Pharmacology Branch, DTP, NCI, 2024)

Test system: 885724-159-R-J1-PDC complex spheroid viability
Assay: Anticancer human tumor 885724-159-R-J1-PDC patient-derived pancreatic adenocarcinoma cell line growth inhibition [POLQ]
Details: for IC50: curve of first compound; for viability, T/C: stronger effect = lower value
In short: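 PDC + HUVEC + MSC complex spheroids; POLQ inhibitors ± partner drugs; top conc. at/near clinical Cmax, else 10 microM (SN-38 1 microM), half-log dilutions; 37 degrees C, 5% CO2.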

[1] = second compound 0.0316 µM, first compound 0.0316 µM
[2] = second compound 0.0316 µM, first compound 0.1 µM
[3] = second compound 0.0316 µM, first compound 0.316 µM
[4] = second compound 0.0316 µM, first compound 1 µM
[5] = second compound 0.0316 µM, first compound 3.16 µM
[6] = second compound 0.0316 µM, first compound 10 µM
[7] = second compound 0.1 µM, first compound 0.0316 µM
[8] = second compound 0.1 µM, first compound 0.1 µM
[9] = second compound 0.1 µM, first compound 0.316 µM
[10] = second compound 0.1 µM, first compound 1 µM
[11] = second compound 0.1 µM, first compound 3.16 µM
[12] = second compound 0.1 µM, first compound 10 µM
[13] = second compound 0.316 µM, first compound 0.0316 µM
[14] = second compound 0.316 µM, first compound 0.1 µM
[15] = second compound 0.316 µM, first compound 0.316 µM
[16] = second compound 0.316 µM, first compound 1 µM
[17] = second compound 0.316 µM, first compound 3.16 µM
[18] = second compound 0.316 µM, first compound 10 µM
[19] = second compound 1 µM, first compound 0.0316 µM
[20] = second compound 1 µM, first compound 0.1 µM
[21] = second compound 1 µM, first compound 0.316 µM
[22] = second compound 1 µM, first compound 1 µM
[23] = second compound 1 µM, first compound 3.16 µM
[24] = second compound 1 µM, first compound 10 µM
[25] = second compound 3.16 µM, first compound 0.0316 µM
[26] = second compound 3.16 µM, first compound 0.1 µM
[27] = second compound 3.16 µM, first compound 0.316 µM
[28] = second compound 3.16 µM, first compound 1 µM
[29] = second compound 3.16 µM, first compound 3.16 µM
[30] = second compound 3.16 µM, first compound 10 µM
[31] = second compound 10 µM, first compound 0.0316 µM
[32] = second compound 10 µM, first compound 0.1 µM
[33] = second compound 10 µM, first compound 0.316 µM
[34] = second compound 10 µM, first compound 1 µM
[35] = second compound 10 µM, first compound 3.16 µM
[36] = second compound 10 µM, first compound 10 µM
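Also: spheroids exposed to compounds for 7 days.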

## COc1cccc2c1C(=O)c1c(O)c3c(c(O)c1C2=O)CC(O)(C(=O)CO)CC3OC1CC(N)C(O)C(C)O1 (stereo unspecified) + Cc1cccc(N(C)C(=O)C2C(O)CCN2c2nc(C)cc(C(F)(F)F)c2C#N)c1
Second compound 0.0316 µM
  IC50: 0.142 µM
Second compound 0.1 µM
  IC50: 0.14 µM
Second compound 0.316 µM
  IC50: 0.139 µM
Second compound 1 µM
  IC50: 0.112 µM
Second compound 3.16 µM
  IC50: 0.117 µM
Second compound 10 µM
  IC50: 0.124 µM
[1]
  viability, T/C: 72.8%
[2]
  viability, T/C: 57.1%
[3]
  viability, T/C: 32.5%
[4]
  viability, T/C: 11.3%
[5]
  viability, T/C: 5.41%
[6]
  viability, T/C: 6.51%
[7]
  viability, T/C: 67.6%
[8]
  viability, T/C: 55.5%
[9]
  viability, T/C: 34.5%
[10]
  viability, T/C: 11.9%
[11]
  viability, T/C: 5.56%
[12]
  viability, T/C: 8.59%
[13]
  viability, T/C: 80.8%
[14]
  viability, T/C: 57.1%
[15]
  viability, T/C: 31%
[16]
  viability, T/C: 8.3%
[17]
  viability, T/C: 5.71%
[18]
  viability, T/C: 9.04%
[19]
  viability, T/C: 75.3%
[20]
  viability, T/C: 51%
[21]
  viability, T/C: 30.4%
[22]
  viability, T/C: 10.5%
[23]
  viability, T/C: 5.49%
[24]
  viability, T/C: 6.59%
[25]
  viability, T/C: 75.5%
[26]
  viability, T/C: 51.7%
[27]
  viability, T/C: 30.3%
[28]
  viability, T/C: 5.5%
[29]
  viability, T/C: 6.53%
[30]
  viability, T/C: 6.91%
[31]
  viability, T/C: 72.7%
[32]
  viability, T/C: 55.6%
[33]
  viability, T/C: 22.9%
[34]
  viability, T/C: 2.58%
[35]
  viability, T/C: 4.96%
[36]
  viability, T/C: 6.82%

## Nc1ccn(C2OC(CO)C(O)C2(F)F)c(=O)n1 (stereo unspecified) + Cc1cccc(N(C)C(=O)C2C(O)CCN2c2nc(C)cc(C(F)(F)F)c2C#N)c1
Second compound 0.0316 µM
  IC50: 5.14 µM
Second compound 0.1 µM
  IC50: > 10 µM
Second compound 0.316 µM
  IC50: 4.24 µM
Second compound 1 µM
  IC50: 4.15 µM
Second compound 3.16 µM
  IC50: 3.06 µM
Second compound 10 µM
  IC50: 7.26 µM
[1]
  viability, T/C: 59.3%
[2]
  viability, T/C: 55.2%
[3]
  viability, T/C: 55.2%
[4]
  viability, T/C: 52.1%
[5]
  viability, T/C: 56.2%
[6]
  viability, T/C: 42.8%
[7]
  viability, T/C: 70.7%
[8]
  viability, T/C: 56%
[9]
  viability, T/C: 57.5%
[10]
  viability, T/C: 58.2%
[11]
  viability, T/C: 55.3%
[12]
  viability, T/C: 45.9%
[13]
  viability, T/C: 67.2%
[14]
  viability, T/C: 58.5%
[15]
  viability, T/C: 55%
[16]
  viability, T/C: 57.6%
[17]
  viability, T/C: 53.1%
[18]
  viability, T/C: 45.4%
[19]
  viability, T/C: 65.1%
[20]
  viability, T/C: 55.4%
[21]
  viability, T/C: 58.2%
[22]
  viability, T/C: 57.4%
[23]
  viability, T/C: 53.1%
[24]
  viability, T/C: 42.8%
[25]
  viability, T/C: 66%
[26]
  viability, T/C: 56.7%
[27]
  viability, T/C: 52%
[28]
  viability, T/C: 56.8%
[29]
  viability, T/C: 54.5%
[30]
  viability, T/C: 42.8%
[31]
  viability, T/C: 68.9%
[32]
  viability, T/C: 55.5%
[33]
  viability, T/C: 59.3%
[34]
  viability, T/C: 56%
[35]
  viability, T/C: 58%
[36]
  viability, T/C: 45.1%

## O=c1[nH]cc(F)c(=O)[nH]1 + Cc1cccc(N(C)C(=O)C2C(O)CCN2c2nc(C)cc(C(F)(F)F)c2C#N)c1
Second compound 0.0316 µM
  IC50: > 10 µM
Second compound 0.1 µM
  IC50: > 10 µM
Second compound 0.316 µM
  IC50: > 10 µM
Second compound 1 µM
  IC50: > 10 µM
Second compound 3.16 µM
  IC50: > 10 µM
Second compound 10 µM
  IC50: > 10 µM
[1]
  viability, T/C: 98.5%
[2]
  viability, T/C: 101%
[3]
  viability, T/C: 95.8%
[4]
  viability, T/C: 100%
[5]
  viability, T/C: 90.2%
[6]
  viability, T/C: 76.4%
[7]
  viability, T/C: 97.7%
[8]
  viability, T/C: 104%
[9]
  viability, T/C: 98.7%
[10]
  viability, T/C: 106%
[11]
  viability, T/C: 90%
[12]
  viability, T/C: 74.7%
[13]
  viability, T/C: 98.7%
[14]
  viability, T/C: 88.6%
[15]
  viability, T/C: 97.5%
[16]
  viability, T/C: 99%
[17]
  viability, T/C: 87.5%
[18]
  viability, T/C: 71.9%
[19]
  viability, T/C: 111%
[20]
  viability, T/C: 107%
[21]
  viability, T/C: 101%
[22]
  viability, T/C: 98.2%
[23]
  viability, T/C: 92%
[24]
  viability, T/C: 76.7%
[25]
  viability, T/C: 114%
[26]
  viability, T/C: 96.2%
[27]
  viability, T/C: 88%
[28]
  viability, T/C: 100%
[29]
  viability, T/C: 87.3%
[30]
  viability, T/C: 71.7%
[31]
  viability, T/C: 99%
[32]
  viability, T/C: 101%
[33]
  viability, T/C: 89.8%
[34]
  viability, T/C: 89.4%
[35]
  viability, T/C: 92.9%
[36]
  viability, T/C: 78.6%
